From patent US20260262643A1, “HERBICIDAL BENZOXAZINES” (FMC CORPORATION, priority 2022, published 2026) come the findings set out here.

Test [1] relates to ragweed. As to the kind of experiment: Test A postemergence. The format is in vivo, Ambrosia artemisiifolia. As to conditions: 1000 g ai/ha, Postemergence; 0 to 100 scale. A digest of the protocol: (§1)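 Loam/sand soil; pre-em directed soil spray at planting, post-em spray at 1–2 leaf (2–10 cm). Compound in non-phytotoxic solvent + surfactant. Greenhouse 10 d; visual injury vs untreated, 0 = no effect, 100 = complete control.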

For test [2], the system named is blackgrass. As to the kind of experiment: Test A postemergence. Format: in vivo, Alopecurus myosuroides. As to conditions: 1000 g ai/ha, Postemergence; 0 to 100 scale. A digest of the protocol: as §1
Test [3] has as its system kochia. The test can be described thus: Test A preemergence. The format is in vivo, Bassia scoparia. As to conditions: 1000 g ai/ha, 0 to 100 scale (0 no effect, 100 complete control), 10 days. A digest of the protocol: as §1
The subject of test [4] is pigweed, palmer. As to the kind of experiment: Test A postemergence. The format is in vivo, Amaranthus palmeri. As to conditions: 1000 g ai/ha, Postemergence; 0 to 100 scale. A digest of the protocol: as §1
The next test deals with galium. As to the kind of experiment: Test A postemergence. The format is in vivo, Galium aparine. As to conditions: 1000 g ai/ha, Postemergence; 0 to 100 scale. In a few lines: as §1
Test [5] concerns barnyardgrass. The test can be described thus: Test A postemergence. The format is in vivo, Echinochloa crusgalli. As to conditions: 1000 g ai/ha, Postemergence; 0 to 100 scale. An excerpt: (§2) Seeds of plant species selected from barnyardgrass (Echinochloa crusgalli), blackgrass (Alopecurus myosuroides), corn (Zea mays), foxtail, giant (giant foxtail, Setaria faberi), goosegrass (Eleusine indica), kochia (Bassia scoparia), oat, wild (wild oat, Avena fatua), pigweed, palmer (palmer amaranth, palmer pigweed, Amaranthus palmeri), Pigweed, Redroot (redroot pigweed, Amaranthus retroflexus), ragweed (common ragweed, Ambrosia artemisiifolia), ryegrass, Italian (italian ryegrass, Lolium multiflorum), soybean (Glycine max), and wheat (Triticum aestivum) were planted into a blend of loam soil and sand and treated preemergence with a directed soil spray using test chemicals formulated in a non-phytotoxic solvent mixture which included a surfactant. At the same time, plants selected from these crops and weed species and also galium (catchweed bedstraw, Galium aparine) and horseweed (Erigeron canadensis) were planted in pots containing the same blend of loam soil and sand and treated with postemergence applications of test chemicals formulated in the same manner. Plants ranged in height from 2 to 10 cm and were in the one- to two-leaf stage for the postemergence treatment. Treated plants and untreated controls were maintained in a greenhouse for 10 days, after which time all treated plants were compared to untreated controls and visually evaluated for injury. Plant response ratings, summarized in Table A, are based on a 0 to 100 scale where 0 is no effect and 100 is complete control. A dash (-) response means no test result.

The subject of test [6] is foxtail, giant. The test can be described thus: Test A postemergence. The format is in vivo, Setaria faberi. As to conditions: 1000 g ai/ha, Postemergence; 0 to 100 scale. In a few lines: as §1
In test [7] the test system is pigweed, palmer. The test can be described thus: Test A preemergence. As to conditions: 1000 g ai/ha, 0 to 100 scale (0 no effect, 100 complete control), 10 days. Format: in vivo, Amaranthus palmeri. In a few lines: as §1
Test [8] has as its system barnyardgrass. As to the kind of experiment: Test A preemergence. The format is in vivo, Echinochloa crusgalli. As to conditions: 1000 g ai/ha, 0 to 100 scale (0 no effect, 100 complete control), 10 days.
Excerpt: as §2

For test [9], the system named is ryegrass, Italian. As to the kind of experiment: Test A preemergence. As to conditions: 1000 g ai/ha, 0 to 100 scale (0 no effect, 100 complete control), 10 days. The format is in vivo, Lolium multiflorum. A digest of the protocol: as §1
The subject of test [10] is foxtail, giant. As to the kind of experiment: Test A preemergence. The format is in vivo, Setaria faberi. As to conditions: 1000 g ai/ha, 0 to 100 scale (0 no effect, 100 complete control), 10 days. In a few lines: as §1
Test [11] concerns blackgrass. The test can be described thus: Test A preemergence. The format is in vivo, Alopecurus myosuroides. As to conditions: 1000 g ai/ha, 0 to 100 scale (0 no effect, 100 complete control), 10 days. In a few lines:
as §1

For another test, the system named is horseweed. As to the kind of experiment: Test A postemergence. The format is in vivo, Erigeron canadensis. As to conditions: 1000 g ai/ha, Postemergence; 0 to 100 scale. A digest of the protocol:
as §1

Test [12] deals with ryegrass, Italian. As to the kind of experiment: Test A postemergence. Format: in vivo, Lolium multiflorum. As to conditions: 1000 g ai/ha, Postemergence; 0 to 100 scale. A digest of the protocol: as §1
In test [13] the test system is kochia. As to the kind of experiment: Test A postemergence. Format: in vivo, Bassia scoparia. As to conditions: 1000 g ai/ha, Postemergence; 0 to 100 scale. A digest of the protocol: as §1
In test [14] the test system is ragweed. As to the kind of experiment: Test A preemergence. The format is in vivo, Ambrosia artemisiifolia. As to conditions: 1000 g ai/ha, 0 to 100 scale (0 no effect, 100 complete control), 10 days. In a few lines:
as §1

`CCOC(=O)c1cnn(-c2cccc(C(=O)N3C[C@H](C)Oc4c(C)cccc43)c2)c1` [Compound 133]: the “Plant response rating, Ragweed” value in the test with ragweed [1] was determined as 40; with ragweed [14], 30. In addition, the “Plant response rating, Blackgrass” value in the test on blackgrass [2] and in the test with blackgrass [11] was 0 in each case. Moreover, the “Plant response rating, Kochia” value with kochia [3] was found to be 0; in the test on kochia [13], 40. In addition, the “Plant response rating, Pigweed, Palmer” value amounted to 30 in the test with pigweed, palmer [4] and 40 in the test on pigweed, palmer [7]. Besides, the “Plant response rating, Galium” value with galium is recorded as 60. Further, the entries for the “Plant response rating, Barnyardgrass” value in the test with barnyardgrass [5] and in the test with barnyardgrass [8] were 20 and 60, respectively. For the same compound, the “Plant response rating, Foxtail, Giant” value with foxtail, giant [6] amounted to 30; with foxtail, giant [10], 80. Further, the “Plant response rating, Ryegrass, Italian” value in the test with ryegrass, Italian [9] was 70; in the test with ryegrass, Italian [12], 60. In addition, the “Plant response rating, Horseweed” value in the test on horseweed is given as 0.
Consider `Cc1cccc2c1O[C@@H](C)CN2C(=O)c1cccc(-n2cc(C(F)(F)F)cn2)c1` [Compound 130], for which the “Plant response rating, Ragweed” value in the test on ragweed [1] and in the test on ragweed [14] was 0 in each case. Moreover, the “Plant response rating, Blackgrass” value in the test with blackgrass [2] came to 0; in the test on blackgrass [11] it was 10. Further, the “Plant response rating, Kochia” value in the test with kochia [3] and in the test with kochia [13] was 0 each time. Besides, the “Plant response rating, Pigweed, Palmer” value is given as 0 in the test with pigweed, palmer [4] and 0 in the test on pigweed, palmer [7]. Besides, the “Plant response rating, Galium” value with galium stood at 0. Also, the results for the “Plant response rating, Barnyardgrass” value with barnyardgrass [5] and in the test on barnyardgrass [8] were 0 and 10, respectively. Also, the “Plant response rating, Foxtail, Giant” value with foxtail, giant [6] is recorded as 0; in the test on foxtail, giant [10], 0. In addition, the “Plant response rating, Ryegrass, Italian” value in the test on ryegrass, Italian [9] is recorded as 0; in the test on ryegrass, Italian [12], 0. Besides, the “Plant response rating, Horseweed” value in the test on horseweed was determined as 0.
